Earlier results as cited in US8633181B2, “Treatment of cutaneous hemangioma” (Rutgers, The State University of New Jersey, priority 2009, dated 2014).

Tested on: severe hemangioma of infants
Conditions: systemic propranolol

CC(C)NCC(O)COc1cccc2ccccc12 (stereo not shown) [propranolol]
time to significant shrinkage of the hemangioma after initiation: about 24 hours
